Results from patent US7855166B2, “Sulfonylamino(thio)carbonyl compounds” (Bayer Cropscience GmbH, priority 2005, dated 2010).

What was measured:
[1] = test system: weed plants such as Sinapis alba, Chrysanthemum segetum, Avena sativa, Stellaria media, Echinochloa crus-galli, Lolium multiflorum, Setaria viridis, Abutilon …; test: Pre-emergence effect on weeds (greenhouse pot test, visual scoring); format: in vivo; conditions: applied pre-emergence at a rate of 0.3 kg or less of active substance per hectare; scored after 3 to 4 weeks in comparison to untreated controls
[2] = test system: weed plants such as Sinapis alba, Echinochloa crus-galli, Lolium multiflorum, Chrysanthemum segetum, Setaria viridis, Abutilon theophrasti, Amaranthus …; test: Post-emergence effect on weeds (greenhouse pot test, visual scoring); format: in vivo; conditions: applied post-emergence (three-leaf stage) at a rate of 0.3 kg or less of active substance per hectare; scored after about 3 to 4 weeks in comparison to untreated controls

SMILES	herbicidal action against weed plants (visual scoring of plant damage or emergence damage) [1]	herbicidal action against weed plants (effect scored visually) [2]
CCCOc1nn(C(=O)NS(=O)(=O)c2c(Cl)cc(C(F)(F)F)cc2I)c(=O)n1C1CC1 [Compound 1.848]	very good herbidical action	very good herbicidal action
COc1nn(C(=O)NS(=O)(=O)c2c(Cl)ccc(Cl)c2I)c(=O)n1C [Compound 1.849]	very good herbidical action	very good herbicidal action
CCOc1nn(C(=O)NS(=O)(=O)c2c(Cl)ccc(Cl)c2I)c(=O)n1C [Compound 1.850]	very good herbidical action	very good herbicidal action
CCCOc1nn(C(=O)NS(=O)(=O)c2c(Cl)ccc(Cl)c2I)c(=O)n1C [Compound 1.851]	very good herbidical action	very good herbicidal action
CC(C)Oc1nn(C(=O)NS(=O)(=O)c2c(Cl)ccc(Cl)c2I)c(=O)n1C [Compound 1.852]	very good herbidical action	very good herbicidal action
COc1nn(C(=O)NS(=O)(=O)c2c(Cl)ccc(Cl)c2I)c(=O)n1C1CC1 [Compound 1.853]	very good herbidical action	very good herbicidal action
CCOc1nn(C(=O)NS(=O)(=O)c2c(Cl)ccc(Cl)c2I)c(=O)n1C1CC1 [Compound 1.854]	very good herbidical action	very good herbicidal action
CCOc1nn(C(=O)NS(=O)(=O)c2ccc(C)c(F)c2I)c(=O)n1C [Compound 1.856]	very good herbidical action	very good herbicidal action
CCCOc1nn(C(=O)NS(=O)(=O)c2ccc(C)c(F)c2I)c(=O)n1C [Compound 1.857]	very good herbidical action	very good herbicidal action
Cc1ccc(S(=O)(=O)NC(=O)n2nc(OC(C)C)n(C)c2=O)c(I)c1F [Compound 1.858]	very good herbidical action	very good herbicidal action
COc1nn(C(=O)NS(=O)(=O)c2ccc(C)c(F)c2I)c(=O)n1C1CC1 [Compound 1.859]	very good herbidical action	very good herbicidal action
CCOc1nn(C(=O)NS(=O)(=O)c2ccc(C)c(F)c2I)c(=O)n1C1CC1 [Compound 1.860]	very good herbidical action	very good herbicidal action
CCCOc1nn(C(=O)NS(=O)(=O)c2ccc(C)c(F)c2I)c(=O)n1C1CC1 [Compound 1.861]	very good herbidical action	very good herbicidal action
COc1nn(C(=O)NS(=O)(=O)c2cc(C)c(C)cc2I)c(=O)n1C [Compound 1.862]	very good herbidical action	very good herbicidal action
CCOc1nn(C(=O)NS(=O)(=O)c2cc(C)c(C)cc2I)c(=O)n1C [Compound 1.863]	very good herbidical action	very good herbicidal action
CCCOc1nn(C(=O)NS(=O)(=O)c2cc(C)c(C)cc2I)c(=O)n1C [Compound 1.864]	very good herbidical action	very good herbicidal action
Cc1cc(I)c(S(=O)(=O)NC(=O)n2nc(OC(C)C)n(C)c2=O)cc1C [Compound 1.865]	very good herbidical action	very good herbicidal action
COc1nn(C(=O)NS(=O)(=O)c2cc(C)c(C)cc2I)c(=O)n1C1CC1 [Compound 1.866]	very good herbidical action	very good herbicidal action
CCOc1nn(C(=O)NS(=O)(=O)c2cc(C)c(C)cc2I)c(=O)n1C1CC1 [Compound 1.867]	very good herbidical action	very good herbicidal action
CCCOc1nn(C(=O)NS(=O)(=O)c2cc(C)c(C)cc2I)c(=O)n1C1CC1 [Compound 1.868]	very good herbidical action	very good herbicidal action
COc1nn(C(=O)NS(=O)(=O)c2ccc(Cl)cc2I)c(=O)n1C [Compound 1.869]	very good herbidical action	very good herbicidal action
CCOc1nn(C(=O)NS(=O)(=O)c2ccc(Cl)cc2I)c(=O)n1C [Compound 1.870]	very good herbidical action	very good herbicidal action
CCCOc1nn(C(=O)NS(=O)(=O)c2ccc(Cl)cc2I)c(=O)n1C [Compound 1.871]	very good herbidical action	very good herbicidal action
CC(C)Oc1nn(C(=O)NS(=O)(=O)c2ccc(Cl)cc2I)c(=O)n1C [Compound 1.872]	very good herbidical action	very good herbicidal action
COc1nn(C(=O)NS(=O)(=O)c2ccc(Cl)cc2I)c(=O)n1C1CC1 [Compound 1.873]	very good herbidical action	very good herbicidal action
CCOc1nn(C(=O)NS(=O)(=O)c2ccc(Cl)cc2I)c(=O)n1C1CC1 [Compound 1.874]	very good herbidical action	very good herbicidal action
CCCOc1nn(C(=O)NS(=O)(=O)c2ccc(Cl)cc2I)c(=O)n1C1CC1 [Compound 1.875]	very good herbidical action	very good herbicidal action
CCCc1ccc(S(=O)(=O)NC(=O)n2nc(OC)n(C)c2=O)c(I)c1 [Compound 1.876]	very good herbidical action	very good herbicidal action
CCCc1ccc(S(=O)(=O)NC(=O)n2nc(OCC)n(C)c2=O)c(I)c1 [Compound 1.877]	very good herbidical action	very good herbicidal action
